Reference: patent US8247211B2, “Glycopeptide antibiotics” (American Cyanamid Company, priority 2001, dated 2012)
Values after ≈ are worked out from the molar mass of the structure shown.

What was measured:
Experiment in all cases: In vitro antibacterial evaluation: minimum inhibitory concentration (MIC), broth dilution method
Assay type in all cases: cell-based
Enterococcus sp. = system: Enterococcus sp.
Experimental: (§1) The minimum inhibitory concentration (MIC), the lowest concentration of the antibiotic which inhibits growth of the test organism, is determined by the broth dilution method using Muller-Hinton II […] (Baltimore Biological Laboratories) following the recommendations of the National Committee for Clinical Laboratory Standards [Methods for dilution antimicrobial susceptibility tests for bacteria that grow aerobically, approved standard M7-A2, National Committee for Clinical Laboratory Standards, Villanova, Pa].
(§2) An inoculum level of 5×10^5 CFU/mL, and a range of antibiotic concentrations (64-0.06 μg/mL) is used. […] The test organisms include a spectrum of Gram-positive bacteria comprised of Staphylococcus sp., Streptococcus sp. and Enterococcus sp. These organisms include recent clinical isolates that are resistant to methicillin, penicillin and/or vancomycin.

Escherichia coli = system: Escherichia coli
Experimental: as §1, §2

Staphylococcus sp. = details: broth dilution, 18 hours at 35° C.
Experimental: as §1, §2

Streptococcus sp. = system: Streptococcus sp.
Experimental: as §1, §2

MIC Enterococcus faecalis (ATCC 29212) (Enterococcus sp.; strain ATCC 29212): 4 µg/mL (≈ 2.82 µM) | MIC Enterococcus faecalis (GC 2242) (Enterococcus sp.; strain GC 2242): 4 µg/mL (≈ 2.82 µM) | MIC Enterococcus faecium (GC 2243) (Enterococcus sp.; strain GC 2243): 4 µg/mL (≈ 2.82 µM) | MIC Enterococcus faecalis (GC 2691) (Enterococcus sp.; strain GC 2691): 8 µg/mL (≈ 5.64 µM) | MIC Enterococcus faecalis (GC 3059) (Enterococcus sp.; strain GC 3059): 4 µg/mL (≈ 2.82 µM) | MIC Enterococcus faecalis (GC 4552) (Enterococcus sp.; strain GC 4552): 4 µg/mL (≈ 2.82 µM) | MIC Enterococcus faecalis (GC 4553) (Enterococcus sp.; strain GC 4553): 8 µg/mL (≈ 5.64 µM) | MIC Enterococcus faecalis (GC 4554) (Enterococcus sp.; strain GC 4554): 8 µg/mL (≈ 5.64 µM) | MIC Enterococcus faecium (GC 4556) (Enterococcus sp.; strain GC 4556): 8 µg/mL (≈ 5.64 µM) | MIC Enterococcus faecium (GC 4557) (Enterococcus sp.; strain GC 4557): 2 µg/mL (≈ 1.41 µM) | MIC Enterococcus avium (GC 4558) (Enterococcus sp.; strain GC 4558): 4 µg/mL (≈ 2.82 µM) | MIC Enterococcus faecalis (GC 6189) (Enterococcus sp.; strain GC 6189): 4 µg/mL (≈ 2.82 µM) | MIC Escherichia coli (ATCC 25922) (Escherichia coli; strain ATCC 25922): 64 µg/mL (≈ 45.1 µM) | MIC Escherichia coli (GC 4559) (Escherichia coli; strain GC 4559): 64 µg/mL (≈ 45.1 µM) | MIC Escherichi coli (GC 4560) (Escherichia coli; strain GC 4560): 0.5 µg/mL (≈ 0.353 µM) | MIC Coagulase Negative Staphylococcus (GC 4547) (Staphylococcus sp.; 5×10^5 CFU/mL): 4 µg/mL (≈ 2.82 µM) | MIC Coagulase Negative Staphylococcus (GC 4548) (Staphylococcus sp.; 5×10^5 CFU/mL): 1 µg/mL (≈ 0.705 µM) | MIC Coagulase Negative Staphylococcus (GC 4549) (Staphylococcus sp.; 5×10^5 CFU/mL): 1 µg/mL (≈ 0.705 µM) | MIC Coagulase Negative Staphylococcus (GC 4551) (Staphylococcus sp.; 5×10^5 CFU/mL): 2 µg/mL (≈ 1.41 µM) | MIC Coagulase Negative Staphylococcus (GC 6257) (Staphylococcus sp.; 5×10^5 CFU/mL): 2 µg/mL (≈ 1.41 µM) | MIC Staphylococcus aureus (ATCC 29213) (Staphylococcus sp.; 5×10^5 CFU/mL): 2 µg/mL (≈ 1.41 µM) | MIC Staphylococcus aureus (GC 1131) (Staphylococcus sp.; 5×10^5 CFU/mL): 2 µg/mL (≈ 1.41 µM) | MIC Staphylococcus aureus (GC 3051) (Staphylococcus sp.; 5×10^5 CFU/mL): 2 µg/mL (≈ 1.41 µM) | MIC Staphylococcus aureus (GC 3053) (Staphylococcus sp.; 5×10^5 CFU/mL): 2 µg/mL (≈ 1.41 µM) | MIC Staphylococcus aureus (GC 4541) (Staphylococcus sp.; 5×10^5 CFU/mL): 2 µg/mL (≈ 1.41 µM) | MIC Staphylococcus aureus (GC 4542) (Staphylococcus sp.; 5×10^5 CFU/mL): 2 µg/mL (≈ 1.41 µM) | MIC Staphylococcus aureus (GC 4544) (Staphylococcus sp.; 5×10^5 CFU/mL): 2 µg/mL (≈ 1.41 µM) | MIC Staphylococcus aureus (GC 4545) (Staphylococcus sp.; 5×10^5 CFU/mL): 2 µg/mL (≈ 1.41 µM) | MIC Staphylococcus aureus-SMITH (GC 4543) (Staphylococcus sp.; 5×10^5 CFU/mL): 1 µg/mL (≈ 0.705 µM) | MIC Staphylococcus aureus (ATCC 29213) (Staphylococcus sp.; strain ATCC 29213): 2 µg/mL (≈ 1.41 µM) | MIC Staphylococcus aureus (GC 1131) (Staphylococcus sp.; strain GC 1131): 2 µg/mL (≈ 1.41 µM) | MIC Staphylococcus aureus (GC 3051) (Staphylococcus sp.; strain GC 3051): 2 µg/mL (≈ 1.41 µM) | MIC Staphylococcus aureus (GC 3053) (Staphylococcus sp.; strain GC 3053): 2 µg/mL (≈ 1.41 µM) | MIC Staphylococcus aureus (GC 4541) (Staphylococcus sp.; strain GC 4541): 2 µg/mL (≈ 1.41 µM) | MIC Staphylococcus aureus (GC 4542) (Staphylococcus sp.; strain GC 4542): 2 µg/mL (≈ 1.41 µM) | MIC Staphylococcus aureus-SMITH (GC 4543) (Staphylococcus sp.; strain GC 4543): 1 µg/mL (≈ 0.705 µM) | MIC Staphylococcus aureus (GC 4544) (Staphylococcus sp.; strain GC 4544): 2 µg/mL (≈ 1.41 µM) | MIC Staphylococcus aureus (GC 4545) (Staphylococcus sp.; strain GC 4545): 2 µg/mL (≈ 1.41 µM) | MIC Coagulase Negative Staphylococcus (GC 4547) (Staphylococcus sp.; strain GC 4547): 4 µg/mL (≈ 2.82 µM) | MIC Coagulase Negative Staphylococcus (GC 4548) (Staphylococcus sp.; strain GC 4548): 1 µg/mL (≈ 0.705 µM) | MIC Coagulase Negative Staphylococcus (GC 4549) (Staphylococcus sp.; strain GC 4549): 1 µg/mL (≈ 0.705 µM) | MIC Coagulase Negative Staphylococcus (GC 4551) (Staphylococcus sp.; strain GC 4551): 2 µg/mL (≈ 1.41 µM) | MIC Coagulase Negative Staphylococcus (GC 6257) (Staphylococcus sp.; strain GC 6257): 2 µg/mL (≈ 1.41 µM) | MIC Streptococcus pneumoniae (ATCC 6301) (Streptococcus sp.; strain ATCC 6301): <0.06 µg/mL | MIC Streptococcus pneumoniae (GC 1894) (Streptococcus sp.; strain GC 1894): <0.06 µg/mL | MIC Streptococcus pyogenes (GC 4563) (Streptococcus sp.; strain GC 4563): 0.25 µg/mL (≈ 0.176 µM) | MIC Streptococcus agalactiae (GC 4564) (Streptococcus sp.; strain GC 4564): 0.12 µg/mL (≈ 0.0846 µM) | MIC Streptococcus pneumoniae (GC 4565) (Streptococcus sp.; strain GC 4565): <0.06 µg/mL
SMILES: CC(c1ccccc1)C1NC(=O)CNC(=O)C(CO)NC(=O)C(C(O)C2CNC(=N)N2C2OC(CO)C(O)C(O)C2O)NC(=O)C(C(O)C2CNC(=N)N2)NC(=O)C(Cc2ccc(OC3OC(CO)C(OC4OC5COC(c6cccc(Cl)c6)OC5C(O)C4O)C(O)C3O)cc2)NC1=O (stereo not drawn) [Example 138, Cyclo[glycyl-β-methylphenylalanyl-O-[4-O-[4,6-O-(3-chlorobenzylidene)hexopyranosyl]-hexopyranosyl]tyrosyl-3-(2-iminoimidazolidin-4-yl)seryl-3-(3-hexopyranosyl-2-iminoimidazolidin-4-yl)serylseryl]]
MIC Staphylococcus haemolyticus (GC 4546) (Staphylococcus sp.; 5×10^5 CFU/mL): 2 µg/mL (≈ 1.41 µM) | MIC Staphylococcus haemolyticus (GC 4546) (Staphylococcus sp.; strain GC 4546): 2 µg/mL (≈ 1.41 µM)
